Assay: Surface tension of aqueous solutions (Du Noüy-Padday method, platinum rod probe)
Type: physicochemical
Settings: for Minimum hydrotrope concentration (MHC) or critical micelle concentration (CMC) / surface tension of water (γsat): in water at 25° C.; for surface tension of water (γsat): saturation surface tension; for concentration necessary to lower the surface tension / surface tension reached at the stated concentration: water
Method: The term “surfactant” or “surface-active agent” denotes a compound that reduces surface tension when it is dissolved in water or in an aqueous medium, or that reduces the interfacial tension between two liquids, between a liquid and a solid or between a liquid and a gas. As a general rule, the surface-active properties of a compound may be measured by the plate method using a platinum rod as probe (Du Nouy-Padday method, as described in J F Padday, A R Pitt, R M Pashley, J. Chem. Soc. Faraday. Trans 1, 1975, 71, 1919-1931). The Du Nouy-Padday method is used for measuring the equilibrium of surface tension or of dynamic surface tension at the air/liquid interface.
Surface tension was measured at (25.0±0.1)° C. with a Krüss K100MK2 tensiometer using a platinum rod as probe. A total of 1.0 ml of water was added to the measuring vessel. When the surface tension is stable (standard deviation of the last five measurements of 0.2 mN/m), manual dilution is carried out with a concentrated solution of surfactant to its limit of solubility while maintaining constant volume.
In the present study, the general characteristics of the surfactants were evaluated by measuring the reduction in saturated surface tension (γsat) and the critical micelle concentration (CMC) of the mixture (3+4) previously obtained in water at 25° C. The surface-active properties were compared against those of the pure compounds.
The surface tension of aqueous solutions containing increasing concentrations of each of the compounds was measured by the Du Noüy-Padday method using a platinum rod as probe (method described in J. F. Padday, A. R. Pitt, R. M. Pashley, J. Chem. Soc. Faraday. Trans 1, 1975, 71, 1919-1931). The data are presented graphically in FIG. 1, showing analysis of the surface tension as a function of the concentration of the sorbitan ether derivatives ([…] (black diamonds), C12EthSorb (black lozenges), C5/C12EthSorb (black triangles)). The value of the critical micelle concentration (CMC) is shown with a small arrow for C5EthSorb.
The general characteristics of the surfactants were evaluated as in example 4 by measuring the reduction in saturated surface tension (γsat) and the critical micelle concentration (CMC) of the mixture (C5/C12 MeGlu) obtained previously in water at 25° C. The surface-active properties were compared with pure compounds.
The surface tension of aqueous solutions containing increasing concentrations of each of the compounds was measured by the plate method using a platinum rod as probe (Du Nouy-Padday method as described in J F Padday, A R Pitt, R M Pashley, J. Chem. Soc. Faraday. Trans 1, 1975, 71, 1919-1931). The data are shown in FIG. 2, showing analysis of the surface tension from the concentration of the ether derivatives of methyl glucoside (C5EthMeGlu (black star), C12EthMeGlu (black diamond), C5/C12EthMeGlu (black cross)).

[1] = ether derivatives of methyl glucoside

## pentyl α-D-methyl glucopyranoside [Product C5EthMeGlu]
[1]
  Minimum hydrotrope concentration (MHC) or critical micelle concentration (CMC): 8199 mg/L
  surface tension of water (γsat): 32 mN/m
Methyl glucoside ethers
  concentration necessary to lower the surface tension: 8199 µg/mL
  surface tension reached at the stated concentration: 32 mN/m

## (6+4)-O-dodecyl-α-D-methyl glucopyranoside [Product C12EthMeGlu]
[1]
  Minimum hydrotrope concentration (MHC) or critical micelle concentration (CMC): 4.5 mg/L
  surface tension of water (γsat): 28 mN/m

## pentyl sorbitan [Product C5EthSorb]
Sorbitan ether derivatives
  Minimum hydrotrope concentration (MHC) or critical micelle concentration (CMC): 1779 mg/L
  surface tension of water (γsat): 32 mN/m
Sorbitan ethers, to lower the surface tension by 31 mN/m
  concentration necessary to lower the surface tension: 1179 µg/mL
Sorbitan ethers
  surface tension reached at the stated concentration: 31 mN/m

## (6+5+3−)-dodecyl sorbitan [Product C12EthSorb]
Sorbitan ether derivatives
  Minimum hydrotrope concentration (MHC) or critical micelle concentration (CMC): 30.2 mg/L
  surface tension of water (γsat): 31 mN/m

Reference: patent US10442830B2, “Synthesis of monoethers of sugar comprising a long alkyl chain and uses thereof as a surfactant” (TEREOS STARCH & SWEETENERS BELGIUM, priority 2014, dated 2019)
